We go through eight molecules from EP4703365A1, “QUINOLONE DERIVATIVE AND USE THEREOF AGAINST TUMORS” (Horizon Omics Biotech Limited, priority 2023, dated 2024).

One may read the IC50 as the concentration that gives 50% inhibition.

In one series the test system is DLD1 BRCA2^-/-. Put plainly: Cell activity assay (CellTiterGlo, 6 days), BRCA2 gene knockout DLD1 cancer cells. Type of series: cell-based. The conditions noted are these: Homo sapiens, DLD-1, 144 h, 6 days incubation. As for the experimental part: (§1) • (1) Compound Treatment • a) Preparation of Stock Solutions of Compounds Test compounds were dissolved in DMSO at a concentration of 10 mM or 5 mM, and Olaparib was dissolved in DMSO at a concentration of 10 mM. • b) Compound Storage All compounds dissolved in DMSO were stored in a desiccator at room temperature for short-term storage and transferred to a -20°C refrigerator for long-term storage. • c) Preparation of Working Concentrations of Compounds
(§2) Test compounds were serially diluted in DMSO at a 3-fold gradient to prepare 10 concentration gradients, starting from 10 µM.
(§3) Olaparib was serially diluted in DMSO at a 3-fold gradient to prepare 10 concentration gradients, starting from 10 µM.
(§4) The 384-well plate loaded with the compounds was centrifuged at 1000 rpm for 1 minute.
(§5) • a) Cells were added to the culture medium and incubated in a cell culture incubator at 37°C with 5% CO2. • b) 40 µL of BRCA1- or BRCA2-deficient cells were added to a 384-well plate and incubated overnight at 37°C with 5% CO2. • c) The test compounds were prepared at different concentration gradients on the master plate, and 80 nL of the test compounds and Olaparib were taken from the master plate and added to the 384-well plate containing cells, and incubated at 37°C with 5% CO2 for 6 days. • d) CellTiterGlo (30 µL per well) was added to the 384-well plate, and after incubation at room temperature in the dark for 30 minutes, measurement was performed using an Envision plate reader.
(§6) • a) GraphPad Prism software was used to calculate the ICso and plot the activity curves as a function of concentration. • b) The inhibition of cell activity by the compounds was calculated using the following formula: % Inhibition = [1−(Cmpd−Blank)/(DMSO−Blank)]* 100 [formula]
(In general: In ATP-based viability assays light output follows the ATP content of the culture.)

A further series relates to UWB1.289 Cells. Put plainly: Cell activity assay (CellTiterGlo, 6 days), BRCA1 gene-deficient ovarian cancer cells UWB1.289. The class given is cell-based. The conditions noted are these: UWB1289, 144 h, BRCA1 gene-deficient ovarian cancer cells UWB1.289, 6 days incubation. As for the experimental part: as §1, §2, §3, §4, §5, §6
The target in the next series is hERG (Homo sapiens, UniProt Q12809). The experiment in a line: hERG cardiotoxicity assay (patch clamp, hERG stably expressed HEK 293 cell line). Conditions: 5 doses applied cumulatively. Type of series: cell-based. As for the experimental part: • 1) The hERG stably expressed HEK 293 cell line (Cat# K1236) was purchased from Invitrogen. Cells were cultured in a medium consisting of 85% DMEM, 10% FBS, 0.1 mM NEAA, 25 mM HEPES, 100 U/mL penicillin-streptomycin, 5 µg/mL Blasticidin, and 400 µg/mL Geneticin. Cells were passaged approximately three times a week using TrypLE™ Express and maintained at ~40% to ~80% confluency. Before assay, cells were placed on coverslips with 5×10^5 cells per 6-cm cell culture dish and induced with 1 µg/mL doxycycline for 48 hours. • 2) The coverslip was removed from the cell culture dish and placed on the microscope stage. A suitable cell was located using a 10× objective. The tip of the electrode was located under the microscope using the 10× objective, and the focus was adjusted to the plane of the cell. Once the tip was in focus, the coarse control of the manipulator was used to advance the electrode downward toward the cell while moving the objective to keep the tip in focus. When directly above the cell, the objective was switched to 40× objective, and the fine control of the manipulator was used to approach the cell surface in small steps. • 3) A blank control was first performed to establish a baseline. […] In the presence of the test compounds, the hERG current was recorded for approximately 5 minutes to reach a steady state, followed by capturing 5 scans. For dose-response testing, 5 doses of the test compounds were cumulatively applied to the cells from low to high concentrations. The positive control, dofetilide at a concentration of 150 nM, was applied to each cell, and the hERG current was measured in the test compounds at the highest concentration as a negative control to normalize the percentage of inhibition. To ensure good performance of the cultured cells and operations, cells from the same batch were also tested with 5 doses of dofetilide. Table 4. hERG Toxicity Assay Results
Background: hERG is a cardiac potassium channel; its block is linked to QT prolongation.

For a further series, the system named is MDA-MB-436. The experiment in a line: Cell activity assay (CellTiterGlo, 6 days), BRCA1 gene-deficient MDA-MB-436 cells. The conditions noted are these: Homo sapiens, 144 h, BRCA1 gene-deficient MDA-MB-436, 6 days incubation. The class given is cell-based. As for the experimental part:
as §1, §2, §3, §4, §5, §6

For the next series, the system named is solid tumors. The conditions noted are these: NCT02719977, solid tumors in humans; cited from earlier work.

The structures appear in SMILES notation.

hERG, sequence (Q12809 whole entry): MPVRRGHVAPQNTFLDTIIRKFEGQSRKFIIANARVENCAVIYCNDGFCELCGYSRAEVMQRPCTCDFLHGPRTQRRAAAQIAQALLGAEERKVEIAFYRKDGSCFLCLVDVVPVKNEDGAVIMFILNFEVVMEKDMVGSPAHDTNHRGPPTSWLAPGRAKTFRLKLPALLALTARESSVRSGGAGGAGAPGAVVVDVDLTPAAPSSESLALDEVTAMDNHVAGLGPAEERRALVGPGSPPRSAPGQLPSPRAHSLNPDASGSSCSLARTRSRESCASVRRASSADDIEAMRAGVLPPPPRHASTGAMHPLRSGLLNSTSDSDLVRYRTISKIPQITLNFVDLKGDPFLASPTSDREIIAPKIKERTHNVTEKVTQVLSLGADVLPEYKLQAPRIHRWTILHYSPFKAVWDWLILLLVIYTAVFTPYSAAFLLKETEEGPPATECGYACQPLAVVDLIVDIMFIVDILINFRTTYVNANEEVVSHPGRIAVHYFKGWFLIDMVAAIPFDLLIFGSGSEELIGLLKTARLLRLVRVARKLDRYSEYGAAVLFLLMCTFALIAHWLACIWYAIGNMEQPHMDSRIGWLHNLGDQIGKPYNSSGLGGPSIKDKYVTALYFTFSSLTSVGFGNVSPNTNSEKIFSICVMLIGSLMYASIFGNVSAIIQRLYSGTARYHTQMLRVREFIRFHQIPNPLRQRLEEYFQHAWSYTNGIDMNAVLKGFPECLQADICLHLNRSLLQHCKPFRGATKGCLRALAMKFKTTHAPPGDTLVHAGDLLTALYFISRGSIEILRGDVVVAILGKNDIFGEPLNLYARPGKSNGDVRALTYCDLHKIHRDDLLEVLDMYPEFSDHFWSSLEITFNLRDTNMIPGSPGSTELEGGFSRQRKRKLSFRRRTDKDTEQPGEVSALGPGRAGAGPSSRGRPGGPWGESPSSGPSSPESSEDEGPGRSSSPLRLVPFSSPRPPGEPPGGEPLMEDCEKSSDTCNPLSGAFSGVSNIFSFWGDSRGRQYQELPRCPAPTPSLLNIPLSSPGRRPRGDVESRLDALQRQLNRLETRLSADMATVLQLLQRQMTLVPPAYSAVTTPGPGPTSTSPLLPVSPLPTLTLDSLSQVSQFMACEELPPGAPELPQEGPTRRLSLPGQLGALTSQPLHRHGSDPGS

As for `CN1CCCN(c2ccc3c(=O)c(C(=O)NCCN4CCC4)c4sc5ccccc5n4c3n2)CC1` [Compound C], the IC50 was 4.8 nM in the series with DLD1 BRCA2^-/- and 4.9 nM in the series on UWB1.289 Cells.
Turning to `CN1CCCN(c2ccc3c(=O)c(C(=O)NCc4n[nH]c(=O)c5ccccc45)c4sc5ccccc5n4c3n2)CC1` [Compound G-2], the IC50 against hERG is > 10000 nM.
As for `CN1CCCN(c2ccc3c(=O)c(C(=O)NCCN4CCCC4)c4sc5ccccc5n4c3n2)CC1` [Compound D], the IC50 with DLD1 BRCA2^-/- worked out at 4.3 nM; in the series with UWB1.289 Cells it was 5.8 nM.
`CN1CCCN(c2ccc3c(=O)c(C(=O)NC4CC4)c4sc5ccccc5n4c3n2)CC1` [Compound F]: the IC50 with DLD1 BRCA2^-/- was 17.2 nM; with UWB1.289 Cells it was 40.6 nM.
Turning to `O=C(c1cc(Cc2n[nH]c(=O)c3ccccc23)ccc1F)N1CCN(C(=O)C2CC2)CC1` [Olaparib, reference compound], the IC50 in the series with UWB1.289 Cells was found to be 716 nM; with MDA-MB-436 it was 240 nM.
Take `CN1CCCN(c2ccc3c(=O)c(C(=O)NCc4ccc(=O)[nH]n4)c4sc5ccccc5n4c3n2)CC1` [Compound G-1]: the results for the IC50 in the series on DLD1 BRCA2^-/-, in the series with UWB1.289 Cells and on hERG were 32.7 nM, 40.4 nM and > 30000 nM, respectively.
Consider `CNC(=O)c1c(=O)c2ccc(N3CCCN(C)CC3)nc2n2c1sc1ccccc12` [Compound E], for which the IC50 is 11 nM in the series with DLD1 BRCA2^-/-, 39.8 nM in the series on UWB1.289 Cells and 7.7 nM in the series on MDA-MB-436.
In the case of `Cc1cnc(CNC(=O)c2c(=O)c3ccc(N4CCCN(C)CC4)nc3n3c2sc2ccccc23)cn1` [CX-5461], the results for the IC50 in the series on MDA-MB-436 and against hERG were 10 nM and 5060 nM, respectively. Moreover, in the series on solid tumors, the adverse effects observed entry was “phototoxicity, neutropenia, acral erythema, and nausea”.
